Values joined by “and” are separate entries in the source; they are usually repeats but may differ in a detail not shown here. Identical values can stand only once.
Key:
U2OS cells = assay: Cell viability assay (WST-8), U2OS; type: cell-based, human; settings: replicates
Protocol: (§1) Cell viability assay was performed as previously described. The effect of DCN1 inhibitors on cell growth was evaluated by a WST-8 [2-(2-methoxy-4-nitrophenyl)-3-(4-nitrophenyl)-5-(2,4-disulfophenyl)-2H-tetrazolium, monosodium salt assay (Dojindo Molecular Technologies, Inc). Cells (2000–3000 cells in each well) were seeded in 96-well tissue culture plates in medium (100 μL) and treated with serial dilution of DCN1 inhibitors for 3 days. At the end of incubation, WST-8 dye (20 μL) was added to each well and incubated for 1–3 h, then the absorbance was measured in a microplate reader (Molecular Devices) at 450 nm. Cell growth inhibition was evaluated as the ratio of the absorbance of the sample to that of the control. The values were inserted into Prism software, and the curves and the EC50 values were produced by Prism software.

[1] = Cell viability assay (WST-8), U2OS; type: cell-based, human; settings: human, U2OS cells, replicates, read-out: cell viability relative to control
Protocol: as §1

HCT116 cells = assay: Cell viability assay (WST-8), HCT116; type: cell-based, human; settings: for cell viability relative to control: replicates
Protocol: as §1

[2] = Cell viability assay (WST-8), HCT116; type: cell-based, human; settings: human, HCT116 cells, replicates, read-out: cell viability relative to control
Protocol: as §1

neddylation of cullin 3 = assay: Western blot, cullin 3 neddylation in cells of different tissue types (U2OS, THLE2, MDA-MB-231, KYSE70, HCT116); type: cell-based, human
Protocol: (§2) Western blotting was performed as described previously. Treated cells were lysed by RIPA buffer supplemented with protease inhibitor. The expression level of indicated proteins was examined by immunoblotting analysis and GAPDH was used as the loading control. Antibodies were purchased commercially: cullin 1 (sc-17775, 1:500 dilution) and cullin 2 (sc-166506, 1:500 dilution) from Santa Cruz Biotech (Santa Cruz, CA); cullin 4A (PA5-14542, 1:1000 dilution), cullin 4B (PA5-50647, 1:1000 dilution), and DCN3 (DCUN1D3, PA5-44000, 1:1000 dilution) from Thermo Fisher Scientific (Wayne, MI); cullin 3 (2759, 1:1000), NRF2 (12721, 1:1000 dilution), HO-1 (70081, 1:1000 dilution), and Bim (2819, 1:1000 dilution) from Cell Signaling Technology (Boston, MA); DCN1 (GWB-E3D700, 1:1000 dilution) from GenWay Biotech (San Diego, CA); and cullin 5 (A302-173A, 1:500 dilution) from Bethyl Labs (Montgomery, TX). Results are representative of two independent experiments.

DCN1 [3] = biological target: T1, DCN1 (Homo sapiens, UniProt Q96GG9); assay: Competitive FP binding assay
Protocol: Competitive FP binding assay was performed as previously described. The IC50 and Ki values of DI-1548 and DI-1548DD were determined in competitive binding experiments. Mixtures of preincubated protein/probe complex solution in the assay buffer (196 μL) and compounds in DMSO (4 μL) were added into assay plates which were incubated at room temperature for 30 min with gentle shaking. The concentrations of DCN1 protein and fluorescent probe were 50 and 5 nM, respectively. […] FP values in millipolarization units were measured using the Infinite M-1000 plate reader (Tecan U.S., Research Triangle Park, NC) in Microfluor 1 96-well, black, round-bottom plates (Thermo Fisher Scientific, Waltham, MA) at an excitation wavelength of 485 nm and an emission wavelength of 530 nm. IC50 values were determined by nonlinear regression fitting of the competition curves using the dose–response inhibition equation (four parameters, variable slopes) included in the Prism/GraphPad software. Ki values were calculated using methods described previously.

NRF2 protein = assay: Western blot, NRF2 protein accumulation in cells; type: cell-based, human; settings: 300 nM
Protocol: as §2

DCN1 [4] = biological target: T1, DCN1; assay: Intact-protein mass spectrometric analysis, Method B (DCN1); type: binding; settings: 3 h incubation, 100 nM protein
Protocol: Method B: Recombinant DCN1 or DCN3 protein (100 nM in 25 mM Tris 7.5, 200 mM NaCl, 1 mM DTT buffer) was incubated with 1.2-fold excess of the DCN1 inhibitors at 37 °C for 10 min, 1 h, or 3 h. Following incubation, the protein was analyzed by LC–MS (Agilent Q-TOF 6545) under the following conditions: fragmentor voltage, 300 V; skimmer voltage, 75 V; nozzle voltage, 100 V; sheath gas temperature, 350 °C; and drying gas temperature, 325 °C. MassHunter Qualitative Analysis software (Agilent) was used to analyze the data. Intact protein masses were obtained using the maximum entropy deconvolution algorithm. The mass spectrometry data in Supplementary Figs. 14–17 were generated by Method B.

KYSE70 cells = assay: Cell viability assay (WST-8), KYSE70; type: cell-based, human; settings: for cell viability relative to control: replicates
Protocol: as §1

[5] = Cell viability assay (WST-8), KYSE70; type: cell-based, human; settings: human, KYSE70 cells, replicates, read-out: cell viability relative to control
Protocol: as §1

MDA-MB-231 cells = assay: Cell viability assay (WST-8), MDA-MB-231; type: cell-based, human; settings: for cell viability relative to control: replicates
Protocol: as §1

[6] = Cell viability assay (WST-8), MDA-MB-231; type: cell-based, human; settings: human, MDA-MB-231 cells, replicates, read-out: cell viability relative to control
Protocol: as §1

T1 sequence (Q96GG9 whole entry): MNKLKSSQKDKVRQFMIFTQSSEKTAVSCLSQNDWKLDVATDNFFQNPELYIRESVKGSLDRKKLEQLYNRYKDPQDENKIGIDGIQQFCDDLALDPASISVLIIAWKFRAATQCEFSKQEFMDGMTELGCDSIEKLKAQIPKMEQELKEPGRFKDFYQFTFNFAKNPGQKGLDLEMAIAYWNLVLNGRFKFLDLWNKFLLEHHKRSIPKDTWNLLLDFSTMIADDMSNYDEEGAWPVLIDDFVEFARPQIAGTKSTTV

C=C(CN1CCOCC1)C(=O)NC[C@H](NC(=O)[C@@H](Cc1nc2ccc(C(C)C)cc2s1)NC(=O)CC)C1CCCCC1 [DI-1548DD]
cell viability relative to control (U2OS cells; conc 10, 72 h): 109.342 and 93.2895 and 98.1579
cell viability relative to control (U2OS cells; conc 30, 72 h): 118.158 and 95.5263 and 92.6316
cell viability relative to control (U2OS cells; conc 100, 72 h): 108.684 and 93.421 and 101.974
cell viability relative to control (U2OS cells; conc 300, 72 h): 103.684 and 90.921 and 92.2368
cell viability relative to control (U2OS cells; conc 1000, 72 h): 95.1316 and 97.1053 and 98.2895
viability at 72 h ([1]; conc 10, 72 h): 90.3%
viability at 72 h ([1]; conc 1000, 72 h): 87.9%
EC50 (HCT116 cells; Homo sapiens, HCT-116, 72 h, cell line assigned from panel order, read-out: EC50, cell growth inhibition): > 1 µM
cell viability relative to control (HCT116 cells; conc 3, 72 h): 101.869 and 103.551
cell viability relative to control (HCT116 cells; conc 10, 72 h): 94.2056 and 90
cell viability relative to control (HCT116 cells; conc 30, 72 h): 80.7477 and 101.215 and 108.939
cell viability relative to control (HCT116 cells; conc 100, 72 h): 96.6355 and 107.727
cell viability relative to control (HCT116 cells; conc 300, 72 h): 79.5327 and 97.5701 and 109.546
cell viability relative to control (HCT116 cells; conc 1000, 72 h): 96.8224 and 90.3738
viability at 72 h ([2]; conc 3, 72 h): 96.9%
viability at 72 h ([2]; conc 10, 72 h): 107%
viability at 72 h ([2]; conc 100, 72 h): 87.8%
viability at 72 h ([2]; conc 1000, 72 h): 79.7%
times less potent than DI-1548 and DI-1859, respectively, on cullin 3 neddylation (neddylation of cullin 3): > 300 times
effect on the neddylation of cullin 3 (neddylation of cullin 3; 100–300 nM): no significant effect
times less potent than DI-1548 in binding to DCN1 (DCN1 [3]): > 1000 times
FP signal of the competitive binding curve (DCN1 [3]; Concentration (nM) 0.169351, duplicates): 48.4 and 48
FP signal of the competitive binding curve (DCN1 [3]; Concentration (nM) 0.508053, duplicates): 47 and 44.7
FP signal of the competitive binding curve (DCN1 [3]; Concentration (nM) 1.52416, duplicates): 42.8 and 45.5
FP signal of the competitive binding curve (DCN1 [3]; Concentration (nM) 4.57247, duplicates): 46.4 and 45.6
FP signal of the competitive binding curve (DCN1 [3]; Concentration (nM) 13.7174, duplicates): 45.7
FP signal of the competitive binding curve (DCN1 [3]; Concentration (nM) 41.1523, duplicates): 43.9 and 44.9
FP signal of the competitive binding curve (DCN1 [3]; Concentration (nM) 123.457, duplicates): 43.5 and 44.2
FP signal of the competitive binding curve (DCN1 [3]; Concentration (nM) 370.37, duplicates): 42.9 and 41.1
FP signal of the competitive binding curve (DCN1 [3]; Concentration (nM) 1111.11, duplicates): 36.2 and 35.7
FP signal of the competitive binding curve (DCN1 [3]; Concentration (nM) 3333.33, duplicates): 28.3 and 29.7
FP signal of the competitive binding curve (DCN1 [3]; Concentration (nM) 10000, duplicates): 20.5 and 22.6
IC50 (DCN1 [3]; DCN1 50 nM, probe 5 nM, 30 min): 2.88 µM
accumulation of NRF2 protein (NRF2 protein): no obvious accumulation
covalent complex formation with DCN1 (DCN1 [4]): fails to form any detectable complex
EC50 (KYSE70 cells; Homo sapiens, KYSE-70, 72 h, cell line assigned from panel order, read-out: EC50, cell growth inhibition): > 1 µM
cell viability relative to control (KYSE70 cells; conc 10, 72 h): 101.942 and 101.216
cell viability relative to control (KYSE70 cells; conc 30, 72 h): 111.396 and 109.174 and 90.4505
cell viability relative to control (KYSE70 cells; conc 100, 72 h): 115.736 and 126.65 and 80.7614
cell viability relative to control (KYSE70 cells; conc 300, 72 h): 86.0914 and 84.7716
cell viability relative to control (KYSE70 cells; conc 1000, 72 h): 63.3503 and 88.731 and 70.4569
viability at 72 h ([5]; conc 10, 72 h): 98.7%
viability at 72 h ([5]; conc 300, 72 h): 88%
EC50 (MDA-MB-231 cells; Homo sapiens, MDA-MB-231, 72 h, cell line assigned from panel order, read-out: EC50, cell growth inhibition): > 1 µM
cell viability relative to control (MDA-MB-231 cells; conc 10, 72 h): 111.264 and 113.448
cell viability relative to control (MDA-MB-231 cells; conc 30, 72 h): 102.295 and 109.77
cell viability relative to control (MDA-MB-231 cells; conc 100, 72 h): 112.459 and 97.8161
cell viability relative to control (MDA-MB-231 cells; conc 300, 72 h): 97.7869 and 103.793
cell viability relative to control (MDA-MB-231 cells; conc 1000, 72 h): 105.329 and 127.049 and 101.954
viability at 72 h ([6]; conc 10, 72 h): 93.6%
viability at 72 h ([6]; conc 30, 72 h): 108%
viability at 72 h ([6]; conc 100, 72 h): 104%
viability at 72 h ([6]; conc 300, 72 h): 104%
